Data reported in US20250340837A1, “CELLS” (University of Geneva, priority 2022, published 2025).

Test system: C57Bl/6 otic progenitors
Assay: Stemness reprogramming and regeneration in hair cell progenitors
Type: cell-based, mouse
Settings: 30 days, with CHIR99021 3 μM
Method: C57Bl/6 otic progenitors were plated at 10,000 cells/well of a 96 well plate and treated with WNT agonist (CHIR99021; 3 μM) and the above mentioned compounds for 30 days. (A) Graph representing the average growth (% otic progenitors cultured in presence of GF+CHIR) after 30 days. […] Data represent the average±SEM of three independent experiments.
For reprogramming stemness of auditory hair cells, C57Bl/6 otic progenitors were plated at 10,000 cells/well of a 96 well plate and treated with WNT agonist (CHIR99021; 3 μM) and the above mentioned compounds for 30 days.

COc1cc(-c2cc(-c3ccc(N4CCNCC4)cc3)cnc2C)cc(OC)c1OC [compound 51, LDN-214117]
stemness reprogramming, average growth (% otic progenitors cultured in presence of GF+CHIR): particularly good candidates
